Results published in PMC4447944 (The Journal of Biological Chemistry, 2015).

Experiments:
hCLK1 = target: T1, hCLK1 (Homo sapiens, UniProt P49759); assay: KINOMEscan; assay type: binding
T1 construct: purchased DiscoverX

hBLK = target: T2, hBLK (Homo sapiens, UniProt P51451); assay: KINOMEscan; assay type: binding
T2 construct: purchased DiscoverX

hERK3 = target: T3, hERK3 (Homo sapiens, UniProt Q16659); assay: KINOMEscan; assay type: binding
T3 construct: purchased DiscoverX

hJNK3 = target: T4, hJNK3 (Homo sapiens, UniProt P53779); assay: KINOMEscan; assay type: binding
T4 construct: purchased DiscoverX (KINOMEscan panel)
T4 sequence (P53779 whole entry): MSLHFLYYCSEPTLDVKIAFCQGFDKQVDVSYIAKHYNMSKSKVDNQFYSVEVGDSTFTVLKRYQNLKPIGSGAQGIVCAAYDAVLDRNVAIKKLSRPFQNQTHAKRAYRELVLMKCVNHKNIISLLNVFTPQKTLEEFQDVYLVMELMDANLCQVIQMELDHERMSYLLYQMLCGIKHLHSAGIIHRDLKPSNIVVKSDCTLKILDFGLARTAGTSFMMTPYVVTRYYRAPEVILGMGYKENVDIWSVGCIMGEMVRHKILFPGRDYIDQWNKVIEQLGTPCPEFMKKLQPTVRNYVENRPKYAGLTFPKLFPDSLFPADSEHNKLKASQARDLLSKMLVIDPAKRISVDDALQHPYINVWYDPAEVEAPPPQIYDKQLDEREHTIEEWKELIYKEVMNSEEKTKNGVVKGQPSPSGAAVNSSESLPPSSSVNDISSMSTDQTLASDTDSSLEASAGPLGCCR

hCTK = target: T5, hCTK (Homo sapiens, UniProt P42679); assay: KINOMEscan; assay type: binding
T5 construct: purchased DiscoverX (KINOMEscan platform)
T5 sequence (P42679 whole entry): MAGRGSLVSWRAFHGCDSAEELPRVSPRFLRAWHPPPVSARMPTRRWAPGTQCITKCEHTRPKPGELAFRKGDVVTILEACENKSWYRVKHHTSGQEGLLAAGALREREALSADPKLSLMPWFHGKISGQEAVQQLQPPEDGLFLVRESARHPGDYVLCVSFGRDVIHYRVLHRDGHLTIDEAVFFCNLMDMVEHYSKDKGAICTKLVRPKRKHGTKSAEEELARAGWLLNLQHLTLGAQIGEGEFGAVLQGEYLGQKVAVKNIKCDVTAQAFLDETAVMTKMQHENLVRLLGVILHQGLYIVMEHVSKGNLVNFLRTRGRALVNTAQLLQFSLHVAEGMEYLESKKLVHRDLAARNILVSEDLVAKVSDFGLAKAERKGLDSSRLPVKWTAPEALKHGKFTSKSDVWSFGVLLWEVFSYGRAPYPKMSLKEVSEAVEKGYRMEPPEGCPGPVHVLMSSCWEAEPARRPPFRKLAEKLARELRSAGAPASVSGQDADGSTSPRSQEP

hLRRK2 = target: T6, hLRRK2 (Homo sapiens, UniProt Q5S007); assay: KINOMEscan; assay type: binding
T6 construct: purchased DiscoverX (KINOMEscan platform)

hMINK = target: T7, hMINK (Homo sapiens, UniProt Q8N4C8); assay: KINOMEscan; assay type: binding
T7 construct: purchased DiscoverX

hMKNK2 = target: T8, hMKNK2 (Homo sapiens, UniProt Q9HBH9); assay: KINOMEscan; assay type: binding
T8 construct: purchased DiscoverX

hFLT3-autoinhibited = target: T9, hFLT3-autoinhibited (Homo sapiens, UniProt P36888); assay: KINOMEscan; assay type: binding
T9 construct: purchased DiscoverX

hZAK = target: T10, hZAK (Homo sapiens, UniProt Q9NYL2); assay: KINOMEscan; assay type: binding
T10 construct: purchased DiscoverX
T10 sequence (Q9NYL2 whole entry): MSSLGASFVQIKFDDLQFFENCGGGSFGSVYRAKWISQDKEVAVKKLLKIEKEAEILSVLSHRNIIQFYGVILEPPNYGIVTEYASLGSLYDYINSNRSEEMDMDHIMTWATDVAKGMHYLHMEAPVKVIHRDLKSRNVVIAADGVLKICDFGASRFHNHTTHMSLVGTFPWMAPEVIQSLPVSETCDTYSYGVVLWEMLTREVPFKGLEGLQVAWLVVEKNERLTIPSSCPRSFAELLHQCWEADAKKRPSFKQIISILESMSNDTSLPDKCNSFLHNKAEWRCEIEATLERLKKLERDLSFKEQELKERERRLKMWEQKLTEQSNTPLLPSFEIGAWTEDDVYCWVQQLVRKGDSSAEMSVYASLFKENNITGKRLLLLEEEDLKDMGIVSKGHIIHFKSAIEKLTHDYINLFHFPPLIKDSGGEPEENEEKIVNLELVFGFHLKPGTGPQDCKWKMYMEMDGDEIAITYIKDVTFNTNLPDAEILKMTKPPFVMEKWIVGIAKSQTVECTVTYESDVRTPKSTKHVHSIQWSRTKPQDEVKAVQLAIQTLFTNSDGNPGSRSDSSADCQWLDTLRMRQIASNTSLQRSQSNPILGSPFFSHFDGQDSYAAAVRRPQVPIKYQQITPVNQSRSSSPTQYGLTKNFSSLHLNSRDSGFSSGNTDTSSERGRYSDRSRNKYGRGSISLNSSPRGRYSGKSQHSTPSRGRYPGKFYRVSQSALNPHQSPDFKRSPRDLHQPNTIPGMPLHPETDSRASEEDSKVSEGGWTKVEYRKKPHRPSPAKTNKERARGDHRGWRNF

hCSNK1G1 = target: T11, hCSNK1G1 (Homo sapiens, UniProt Q9HCP0); assay: KINOMEscan; assay type: binding
T11 construct: purchased DiscoverX (KINOMEscan platform)

hCSNK1A1L = target: T12, hCSNK1A1L (Homo sapiens, UniProt Q8N752); assay: KINOMEscan; assay type: binding
T12 construct: purchased DiscoverX (KINOMEscan platform)

p53 Lys370 methylation = assay: Western blot time course and subcellular fractionation, KYSE-150 cells stably expressing FLAG-SMYD2; assay type: cell-based, human
Protocol: 5 × 10^6 KYSE-150 cells or KYSE-150 cells stably overexpressing SMYD2 were harvested and separated into subcellular fractions using the Subcellular Protein Fractionation kit for cultured cells (Thermo Scientific) according to the manufacturer's instructions. Lysates were reduced, boiled, subjected to 4–20% SDS-PAGE, and transferred to nitrocellulose membranes. […] Each membrane was then incubated with ECL anti-rabbit or anti-mouse IgG HRP-linked whole antibody (GE Healthcare) followed by detection with SuperSignal West Femto Maximum Sensitivity Substrate (Thermo Scientific) on a ChemiDoc^TM XRS system (Bio-Rad). Primary tumor lysates in RIPA buffer were obtained from Crownbio Bioscience. Cancer cell lines were obtained from the German Collection of Microorganisms and Cell Cultures GmbH (DSMZ), the Korean Cell Line Bank, the Japanese Collection of Research Bio-Resources, or the American Type Culture Collection (ATCC). Tumor cells were lysed in buffer containing 50 mM Tris-HCl, pH 7.5, 500 mM NaCl, 1% Nonidet P-40, 0.25% sodium deoxycholate, 20 mM NaF, protease inhibitor mixture (Roche Applied Science), and phosphatase inhibitor mixtures I and II (Sigma). Tumor or cell lysates were boiled, subjected to 4–20% SDS-PAGE, and transferred to nitrocellulose membrane. Each membrane was blocked in Odyssey Blocking Buffer and incubated with custom-made mouse monoclonal anti-SMYD2 or mouse monoclonal anti-β-actin (Sigma) antibody followed by detection with IRDye680RD goat anti-mouse IgG on the Odyssey Imager.

hWEE2 = target: T13, hWEE2 (Homo sapiens, UniProt P0C1S8); assay: KINOMEscan; assay type: binding
T13 construct: purchased DiscoverX

hMAP3K15 = target: T14, hMAP3K15 (Homo sapiens, UniProt Q6ZN16); assay: KINOMEscan; assay type: binding
T14 construct: purchased DiscoverX (KINOMEscan platform)

[1] = target: T15, hRPS6KA4(Kin.Dom.1-N-term) (Homo sapiens, UniProt O75676); assay: KINOMEscan; assay type: binding
T15 construct: hRPS6KA4(Kin.Dom.1-N-term); purchased DiscoverX (KINOMEscan platform)
T15 sequence (O75676 33-301 limits assumed): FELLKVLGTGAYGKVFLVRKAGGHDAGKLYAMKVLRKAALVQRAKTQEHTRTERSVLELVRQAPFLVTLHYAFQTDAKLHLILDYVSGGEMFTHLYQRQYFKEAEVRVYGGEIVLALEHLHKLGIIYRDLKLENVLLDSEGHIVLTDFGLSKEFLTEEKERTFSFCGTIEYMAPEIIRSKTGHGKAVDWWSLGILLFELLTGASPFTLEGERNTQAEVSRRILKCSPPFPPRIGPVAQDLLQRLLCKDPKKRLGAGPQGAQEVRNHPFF

hSRPK1 = target: T16, hSRPK1 (Homo sapiens, UniProt Q96SB4); assay: KINOMEscan; assay type: binding
T16 construct: purchased DiscoverX (KINOMEscan platform)

hM2 = target: T17, hM2 (Homo sapiens, UniProt P08172); assay: β-arrestin Potentiation (Eurofins-CEREP); settings: @ 10 μM
T17 sequence (P08172 1-466): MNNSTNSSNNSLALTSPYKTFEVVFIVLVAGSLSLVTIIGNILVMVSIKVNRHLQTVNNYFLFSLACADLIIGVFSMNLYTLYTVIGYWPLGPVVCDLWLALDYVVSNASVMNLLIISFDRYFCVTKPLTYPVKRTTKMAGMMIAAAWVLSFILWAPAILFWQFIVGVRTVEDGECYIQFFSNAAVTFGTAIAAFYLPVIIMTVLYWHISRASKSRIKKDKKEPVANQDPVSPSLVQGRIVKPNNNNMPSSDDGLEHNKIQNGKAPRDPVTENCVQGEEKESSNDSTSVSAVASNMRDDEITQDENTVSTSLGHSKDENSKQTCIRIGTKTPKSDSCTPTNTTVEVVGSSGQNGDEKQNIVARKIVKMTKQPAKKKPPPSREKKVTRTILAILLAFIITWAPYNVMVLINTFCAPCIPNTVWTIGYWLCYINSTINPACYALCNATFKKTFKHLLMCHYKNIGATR

hMARK4 = target: T18, hMARK4 (Homo sapiens, UniProt Q96L34); assay: KINOMEscan; assay type: binding
T18 construct: purchased DiscoverX

hSRPK3 = target: T19, hSRPK3 (Homo sapiens, UniProt Q9UPE1); assay: KINOMEscan; assay type: binding
T19 construct: purchased DiscoverX (KINOMEscan platform)

hM3 = hM3 (Homo sapiens, UniProt P20309); assay: Calcium Mobilization Agonist (Eurofins-CEREP); settings: @ 13.3 μM
hMAP3K3 = target: T20, hMAP3K3 (Homo sapiens, UniProt Q99759); assay: KINOMEscan; assay type: binding
T20 construct: purchased DiscoverX (KINOMEscan platform)

hRARβ = target: T21, hRARβ (Homo sapiens, UniProt P10826); assay: Nuclear hormone receptor assay (Eurofins-CEREP); settings: read-out: Relative IC50
T21 construct: Eurofins-CEREP

hEPHA7 = target: T22, hEPHA7 (Homo sapiens, UniProt Q15375); assay: KINOMEscan; assay type: binding
T22 construct: purchased DiscoverX

hRIOK3 = target: T23, hRIOK3 (Homo sapiens, UniProt O14730); assay: KINOMEscan; assay type: binding
T23 construct: purchased DiscoverX (KINOMEscan platform)

hEGFR(S752-I759del) = target: T24, hEGFR(S752-I759del) (Homo sapiens, UniProt P00533, DEL752-759); assay: KINOMEscan; assay type: binding
T24 construct: purchased DiscoverX
T24 sequence (P00533 with tags, fused parts or gaps DEL752-759): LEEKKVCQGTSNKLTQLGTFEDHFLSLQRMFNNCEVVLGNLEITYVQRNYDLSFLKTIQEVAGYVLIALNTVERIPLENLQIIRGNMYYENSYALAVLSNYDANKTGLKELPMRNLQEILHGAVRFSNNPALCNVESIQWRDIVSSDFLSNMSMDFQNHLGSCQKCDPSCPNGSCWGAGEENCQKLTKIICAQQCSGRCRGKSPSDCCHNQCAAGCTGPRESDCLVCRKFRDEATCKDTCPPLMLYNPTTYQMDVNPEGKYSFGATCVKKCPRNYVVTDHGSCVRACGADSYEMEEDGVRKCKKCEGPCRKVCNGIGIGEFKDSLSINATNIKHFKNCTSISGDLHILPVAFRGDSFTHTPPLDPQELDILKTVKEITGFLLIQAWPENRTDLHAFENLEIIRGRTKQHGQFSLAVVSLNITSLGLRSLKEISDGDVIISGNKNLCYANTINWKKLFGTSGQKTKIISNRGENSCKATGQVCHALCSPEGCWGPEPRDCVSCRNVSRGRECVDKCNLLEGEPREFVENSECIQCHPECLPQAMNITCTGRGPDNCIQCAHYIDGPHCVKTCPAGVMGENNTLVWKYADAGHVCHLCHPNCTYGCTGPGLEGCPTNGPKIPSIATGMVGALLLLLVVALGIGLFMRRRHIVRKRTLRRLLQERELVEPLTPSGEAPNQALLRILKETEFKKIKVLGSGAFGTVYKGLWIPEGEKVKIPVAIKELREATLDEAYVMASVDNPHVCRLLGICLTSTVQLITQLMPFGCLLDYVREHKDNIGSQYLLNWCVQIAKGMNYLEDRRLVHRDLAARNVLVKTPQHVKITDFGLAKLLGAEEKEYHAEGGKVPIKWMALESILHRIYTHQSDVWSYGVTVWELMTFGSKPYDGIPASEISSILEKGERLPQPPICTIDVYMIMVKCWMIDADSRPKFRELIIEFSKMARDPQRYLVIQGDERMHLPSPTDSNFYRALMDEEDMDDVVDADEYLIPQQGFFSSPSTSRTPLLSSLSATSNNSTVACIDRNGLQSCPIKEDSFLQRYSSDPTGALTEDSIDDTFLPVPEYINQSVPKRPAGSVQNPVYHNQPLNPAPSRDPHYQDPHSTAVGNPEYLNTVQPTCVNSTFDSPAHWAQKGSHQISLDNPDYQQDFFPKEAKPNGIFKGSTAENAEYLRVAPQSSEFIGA

T3 sequence (Q16659 whole entry): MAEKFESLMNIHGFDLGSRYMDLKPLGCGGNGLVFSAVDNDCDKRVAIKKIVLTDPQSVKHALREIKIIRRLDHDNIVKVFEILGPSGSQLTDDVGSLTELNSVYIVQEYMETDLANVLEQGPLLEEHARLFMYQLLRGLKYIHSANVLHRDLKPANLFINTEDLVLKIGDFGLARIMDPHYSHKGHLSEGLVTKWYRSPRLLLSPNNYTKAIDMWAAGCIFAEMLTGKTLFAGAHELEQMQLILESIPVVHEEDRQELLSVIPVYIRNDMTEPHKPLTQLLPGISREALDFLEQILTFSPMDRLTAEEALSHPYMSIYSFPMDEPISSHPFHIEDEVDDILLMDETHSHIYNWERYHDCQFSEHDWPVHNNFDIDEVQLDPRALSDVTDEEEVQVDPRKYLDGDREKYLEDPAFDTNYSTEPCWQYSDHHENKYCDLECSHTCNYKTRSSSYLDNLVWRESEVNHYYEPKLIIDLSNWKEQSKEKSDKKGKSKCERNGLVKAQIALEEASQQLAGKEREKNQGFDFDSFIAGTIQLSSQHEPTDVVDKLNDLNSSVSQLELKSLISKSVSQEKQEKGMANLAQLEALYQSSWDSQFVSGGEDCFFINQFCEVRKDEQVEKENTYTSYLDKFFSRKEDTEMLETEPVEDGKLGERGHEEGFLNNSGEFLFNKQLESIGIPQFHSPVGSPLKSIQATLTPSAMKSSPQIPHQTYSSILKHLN
T2 sequence (P51451 whole entry): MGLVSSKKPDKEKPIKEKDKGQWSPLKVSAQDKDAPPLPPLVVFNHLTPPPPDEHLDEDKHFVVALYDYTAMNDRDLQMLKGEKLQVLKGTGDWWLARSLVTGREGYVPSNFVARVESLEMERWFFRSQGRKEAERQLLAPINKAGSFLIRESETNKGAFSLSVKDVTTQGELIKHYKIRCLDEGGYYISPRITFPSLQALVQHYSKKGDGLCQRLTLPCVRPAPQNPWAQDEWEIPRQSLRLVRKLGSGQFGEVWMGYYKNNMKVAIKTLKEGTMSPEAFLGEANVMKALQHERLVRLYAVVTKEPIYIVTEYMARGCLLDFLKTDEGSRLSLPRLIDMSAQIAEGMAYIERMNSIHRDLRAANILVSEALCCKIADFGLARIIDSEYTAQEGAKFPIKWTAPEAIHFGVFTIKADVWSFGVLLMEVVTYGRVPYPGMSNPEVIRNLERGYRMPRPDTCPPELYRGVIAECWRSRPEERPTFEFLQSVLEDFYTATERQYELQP
T1 sequence (P49759 whole entry): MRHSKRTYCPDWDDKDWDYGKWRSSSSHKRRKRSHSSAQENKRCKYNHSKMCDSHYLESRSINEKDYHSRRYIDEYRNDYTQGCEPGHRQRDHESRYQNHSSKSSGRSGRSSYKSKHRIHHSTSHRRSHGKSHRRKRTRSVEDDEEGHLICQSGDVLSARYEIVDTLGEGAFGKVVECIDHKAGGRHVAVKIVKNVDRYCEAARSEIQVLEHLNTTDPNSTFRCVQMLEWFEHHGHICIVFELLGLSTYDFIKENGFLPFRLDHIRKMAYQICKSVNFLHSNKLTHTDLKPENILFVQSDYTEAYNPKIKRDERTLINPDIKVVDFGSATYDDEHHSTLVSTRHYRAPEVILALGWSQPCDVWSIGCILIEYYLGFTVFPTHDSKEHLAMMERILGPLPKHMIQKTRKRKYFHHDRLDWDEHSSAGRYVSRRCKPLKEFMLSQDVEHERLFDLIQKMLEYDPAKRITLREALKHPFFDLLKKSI

## Cc1cn(CCN2CCN(c3ccccc3-c3cc(C#N)cc(C(=O)NCCCN4CCCC4)c3)CC2)c2ccccc12 [LLY-507, 3-cyano-5-{2-[4-[2-(3-methylindol-1-yl)ethyl]piperazin-1-yl]-phenyl}-N-[(3-pyrrolidin-1-yl)propyl]benzamide]
hCLK1
  IC50: > 20 µM
hBLK
  IC50: > 20 µM
hERK3
  IC50: > 20 µM
hJNK3
  IC50: > 20 µM
hCTK
  IC50: > 20 µM
hLRRK2
  IC50: > 20 µM
hMINK
  IC50: > 20 µM
hMKNK2
  IC50: > 20 µM
hFLT3-autoinhibited
  IC50: > 20 µM
hZAK
  IC50: > 20 µM
hCSNK1G1
  IC50: > 20 µM
hCSNK1A1L
  IC50: > 20 µM
p53 Lys370 methylation; 5 μM LLY-507, SMYD2-overexpressing KYSE-150
  time by which significant reductions in p53 Lys370 methylation occurred: ≤ 18 h
p53 Lys370 methylation; KYSE-150 FLAG-SMYD2
  total levels of p53: not significantly affected
p53 Lys370 methylation; cytoplasmic fraction, KYSE-150 FLAG-SMYD2
  reduction of Lys370 methylation on cytoplasmic p53: 50%
p53 Lys370 methylation; nuclear fraction, KYSE-150 FLAG-SMYD2
  reduction of Lys370 methylation on nuclear p53: 25%
hWEE2
  IC50: > 20 µM
hMAP3K15
  IC50: > 20 µM
[1]
  IC50: > 20 µM
hSRPK1
  IC50: > 20 µM
hM2
  % Effect, Potentiation: -32.2%
hMARK4
  IC50: > 20 µM
hSRPK3
  IC50: > 20 µM
hM3
  % Effect, Stimulation: -1.4%
hMAP3K3
  IC50: > 20 µM
hRARβ
  IC50: > 10 µM
hEPHA7
  IC50: > 20 µM
hRIOK3
  IC50: > 20 µM
hEGFR(S752-I759del)
  IC50: > 20 µM
